According to ChEMBL document CHEMBL3232706, “SAR-studies on the importance of aromatic ring topologies in search for selective 5-HT(7) receptor ligands among phenylpiperazine hydantoin derivatives” (Eur J Med Chem, 2014):

Legend:
[1] = molecular target: 5-hydroxytryptamine receptor 6 (Homo sapiens, UniProt P50406); test: Displacement of [3H]-LSD from human recombinant 5-HT6 receptor expressed in HEK293 cell membrane after 1 hr by Microbeta scintillation counting analysis; assay type: cell membranes
[2] = molecular target: T1, 5-hydroxytryptamine receptor 1A (Homo sapiens, UniProt P08908); test: Displacement of [3H]-8-OH-DPAT from human recombinant 5-HT1A receptor expressed in HEK293 cell membrane after 1 hr by Microbeta scintillation counting analysis; assay type: cell membranes
T1 sequence (P08908 whole entry): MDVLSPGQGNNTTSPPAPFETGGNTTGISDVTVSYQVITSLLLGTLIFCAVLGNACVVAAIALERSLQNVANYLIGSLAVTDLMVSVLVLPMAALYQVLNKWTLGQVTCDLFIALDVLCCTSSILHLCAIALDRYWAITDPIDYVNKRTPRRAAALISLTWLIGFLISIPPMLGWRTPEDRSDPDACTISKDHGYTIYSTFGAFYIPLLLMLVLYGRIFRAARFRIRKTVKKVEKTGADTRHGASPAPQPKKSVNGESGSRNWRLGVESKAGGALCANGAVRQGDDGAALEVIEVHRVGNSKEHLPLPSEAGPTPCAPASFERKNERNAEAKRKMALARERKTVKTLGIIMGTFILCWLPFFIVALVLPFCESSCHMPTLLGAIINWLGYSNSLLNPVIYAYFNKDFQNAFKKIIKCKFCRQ

[3] = molecular target: T2, Adrenergic receptor alpha-1 (Rattus norvegicus, UniProt P15823+P23944+P43140); test: Displacement of [3H]prazosin from alpha1 adrenergic receptor in rat cerebral cortex after 30 mins by Microbeta scintillation counting analysis; assay type: tissue-based
T2 sequence (P15823 whole entry): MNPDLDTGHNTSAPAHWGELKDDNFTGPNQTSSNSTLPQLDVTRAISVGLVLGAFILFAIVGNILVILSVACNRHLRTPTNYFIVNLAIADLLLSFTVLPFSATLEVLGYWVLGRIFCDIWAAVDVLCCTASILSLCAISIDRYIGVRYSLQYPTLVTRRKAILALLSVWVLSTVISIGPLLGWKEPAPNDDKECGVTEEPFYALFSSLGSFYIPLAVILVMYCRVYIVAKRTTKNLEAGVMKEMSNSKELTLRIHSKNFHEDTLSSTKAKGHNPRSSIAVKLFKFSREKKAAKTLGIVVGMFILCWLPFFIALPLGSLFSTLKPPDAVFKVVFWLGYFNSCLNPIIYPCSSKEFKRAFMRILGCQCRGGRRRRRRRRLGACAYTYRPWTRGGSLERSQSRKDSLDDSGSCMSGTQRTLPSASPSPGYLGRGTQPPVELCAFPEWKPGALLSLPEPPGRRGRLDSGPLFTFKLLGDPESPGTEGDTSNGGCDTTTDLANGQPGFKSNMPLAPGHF
T2 sequence (P23944 whole entry): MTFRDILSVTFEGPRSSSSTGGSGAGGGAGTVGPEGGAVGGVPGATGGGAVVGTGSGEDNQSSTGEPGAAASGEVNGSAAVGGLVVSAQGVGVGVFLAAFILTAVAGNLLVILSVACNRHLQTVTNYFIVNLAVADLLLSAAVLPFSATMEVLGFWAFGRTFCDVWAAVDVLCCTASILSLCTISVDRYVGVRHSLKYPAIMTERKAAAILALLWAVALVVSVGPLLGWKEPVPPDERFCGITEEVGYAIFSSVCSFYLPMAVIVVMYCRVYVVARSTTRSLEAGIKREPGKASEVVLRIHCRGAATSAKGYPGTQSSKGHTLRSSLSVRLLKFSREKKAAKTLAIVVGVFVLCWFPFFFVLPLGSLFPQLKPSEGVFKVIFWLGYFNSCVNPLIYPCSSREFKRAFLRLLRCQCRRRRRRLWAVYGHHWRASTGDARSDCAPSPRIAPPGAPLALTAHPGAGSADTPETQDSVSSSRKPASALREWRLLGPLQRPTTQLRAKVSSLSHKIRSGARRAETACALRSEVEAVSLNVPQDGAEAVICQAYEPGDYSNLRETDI
T2 sequence (P43140 whole entry): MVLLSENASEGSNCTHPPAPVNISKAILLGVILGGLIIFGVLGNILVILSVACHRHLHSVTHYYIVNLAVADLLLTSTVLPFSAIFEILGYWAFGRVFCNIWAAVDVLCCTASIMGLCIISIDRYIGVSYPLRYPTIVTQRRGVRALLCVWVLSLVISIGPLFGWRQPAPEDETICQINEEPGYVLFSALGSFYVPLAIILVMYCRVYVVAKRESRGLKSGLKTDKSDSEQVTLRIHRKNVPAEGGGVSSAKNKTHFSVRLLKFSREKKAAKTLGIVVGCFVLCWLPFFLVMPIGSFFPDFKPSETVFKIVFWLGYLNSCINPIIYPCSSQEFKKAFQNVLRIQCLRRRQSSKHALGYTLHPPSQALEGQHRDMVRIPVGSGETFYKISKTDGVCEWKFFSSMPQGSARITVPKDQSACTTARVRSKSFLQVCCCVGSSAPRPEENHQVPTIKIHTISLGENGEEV

[4] = molecular target: 5-hydroxytryptamine receptor 7 (Homo sapiens, UniProt P34969); test: Displacement of [3H]-5-CT from human recombinant 5-HT7 receptor expressed in HEK293 cell membrane after 1 hr by Microbeta scintillation counting analysis; assay type: cell membranes
[5] = molecular target: T3, 5-hydroxytryptamine receptor 3A (Homo sapiens) (UniProt P46098); test: Reversible inhibition of human 5-HT3A expressed in xenopus oocytes assessed as decrease in 5-HT-activated chloride current at […] by two-electrode voltage clamp technique; assay type: cell-based
T3 sequence (whole entry): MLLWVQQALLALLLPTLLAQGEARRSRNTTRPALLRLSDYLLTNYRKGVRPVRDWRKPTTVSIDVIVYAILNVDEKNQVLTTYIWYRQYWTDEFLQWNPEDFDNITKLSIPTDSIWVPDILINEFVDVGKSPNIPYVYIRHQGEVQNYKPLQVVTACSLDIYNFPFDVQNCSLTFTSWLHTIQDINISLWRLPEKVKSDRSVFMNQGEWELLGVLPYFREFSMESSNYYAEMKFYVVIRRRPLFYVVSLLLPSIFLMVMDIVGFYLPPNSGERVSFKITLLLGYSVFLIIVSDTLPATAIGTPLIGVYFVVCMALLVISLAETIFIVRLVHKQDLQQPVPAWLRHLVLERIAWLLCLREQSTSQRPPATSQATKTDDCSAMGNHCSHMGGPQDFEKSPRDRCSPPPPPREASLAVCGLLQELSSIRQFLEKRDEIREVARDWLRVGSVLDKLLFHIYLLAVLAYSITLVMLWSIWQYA

[6] = molecular target: T4, Alpha-1D adrenergic receptor (Rattus norvegicus, UniProt P23944); test: Antagonist activity at alpha1D adrenoceptor in Wistar (Krf:(WI) WU) rat endothelium-denuded thoracic aorta assessed as inhibition of noradrenaline-induced contraction after 30 mins; conditions: read-out: pA2 (converted)
T4 sequence (P23944 whole entry): T2 sequence (P23944 whole entry)

[7] = molecular target: T5, Alpha-1A adrenergic receptor (Rattus norvegicus, UniProt P43140); test: Antagonist activity at alpha1A adrenoceptor in Wistar (Krf:(WI) WU) rat endothelium-denuded tail artery assessed as inhibition of noradrenaline-induced contraction after 30 mins; conditions: read-out: pA2 (converted)
T5 sequence (P43140 whole entry): T2 sequence (P43140 whole entry)

[8] = molecular target: T6, Alpha-1B adrenergic receptor (Mus musculus, UniProt P97717); test: Antagonist activity at alpha1B-adrenoceptor in Albino swiss mouse spleen assessed as inhibition of noradrenaline-induced contraction after 30 mins; conditions: read-out: pA2 (converted)
T6 sequence (P97717 whole entry): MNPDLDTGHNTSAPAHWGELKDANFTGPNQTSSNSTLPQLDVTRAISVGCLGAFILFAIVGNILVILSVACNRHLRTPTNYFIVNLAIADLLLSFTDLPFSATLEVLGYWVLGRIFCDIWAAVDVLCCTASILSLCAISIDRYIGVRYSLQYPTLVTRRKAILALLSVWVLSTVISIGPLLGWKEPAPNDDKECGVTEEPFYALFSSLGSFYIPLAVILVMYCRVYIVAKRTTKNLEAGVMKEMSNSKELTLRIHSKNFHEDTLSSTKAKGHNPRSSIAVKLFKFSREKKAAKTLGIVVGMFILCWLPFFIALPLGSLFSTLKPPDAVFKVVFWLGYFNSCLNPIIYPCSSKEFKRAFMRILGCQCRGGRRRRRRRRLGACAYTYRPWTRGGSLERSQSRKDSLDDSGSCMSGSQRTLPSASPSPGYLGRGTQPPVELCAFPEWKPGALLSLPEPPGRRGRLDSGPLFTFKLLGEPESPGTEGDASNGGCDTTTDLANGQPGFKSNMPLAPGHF

[9] = test system: HEK293; test: Selectivity ratio of Ki for alpha1 adrenergic receptor in rat cerebral cortex to Ki for human recombinant 5-HT7 receptor expressed in HEK293 cell membrane; assay type: cell-based
[10] = test system: HEK293; test: Selectivity ratio of Ki for human recombinant 5-HT1A receptor expressed in HEK293 cell membrane to Ki for human recombinant 5-HT7 receptor expressed in HEK293 cell membrane; assay type: cell-based

5-hydroxytryptamine receptor 6, sequence (P50406 whole entry): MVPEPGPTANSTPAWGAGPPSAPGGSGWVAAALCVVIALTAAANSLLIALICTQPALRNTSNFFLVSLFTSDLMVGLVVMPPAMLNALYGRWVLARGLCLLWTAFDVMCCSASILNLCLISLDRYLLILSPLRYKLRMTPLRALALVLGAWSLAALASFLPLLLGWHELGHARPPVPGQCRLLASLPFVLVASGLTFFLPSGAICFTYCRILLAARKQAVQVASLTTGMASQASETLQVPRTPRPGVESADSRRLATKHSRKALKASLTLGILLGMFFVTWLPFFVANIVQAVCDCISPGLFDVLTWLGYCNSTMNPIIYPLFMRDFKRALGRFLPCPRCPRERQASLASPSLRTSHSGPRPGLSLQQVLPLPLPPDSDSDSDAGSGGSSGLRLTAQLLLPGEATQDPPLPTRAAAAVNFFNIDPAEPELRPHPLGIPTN
5-hydroxytryptamine receptor 7, sequence (P34969 whole entry): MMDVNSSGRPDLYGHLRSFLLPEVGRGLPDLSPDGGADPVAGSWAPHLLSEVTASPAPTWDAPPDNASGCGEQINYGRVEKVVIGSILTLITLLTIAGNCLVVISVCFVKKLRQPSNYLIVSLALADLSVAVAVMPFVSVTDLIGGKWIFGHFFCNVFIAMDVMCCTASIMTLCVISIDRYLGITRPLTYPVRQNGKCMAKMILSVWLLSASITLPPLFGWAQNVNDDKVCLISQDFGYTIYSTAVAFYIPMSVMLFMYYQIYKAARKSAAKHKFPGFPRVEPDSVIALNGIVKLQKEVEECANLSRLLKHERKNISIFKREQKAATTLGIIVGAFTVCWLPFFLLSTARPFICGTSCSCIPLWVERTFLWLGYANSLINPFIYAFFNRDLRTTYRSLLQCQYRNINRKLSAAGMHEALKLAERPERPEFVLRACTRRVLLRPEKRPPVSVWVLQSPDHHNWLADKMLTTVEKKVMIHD

SMILES	Ki [1] [nM]	Ki [2] [nM]	Ki [3] [nM]	Ki [4] [nM]	inhibition [5] [%]	Kb [6] [nM]	Kb [7] [nM]	Kb [8] [nM]	Ratio Ki [9]	Ratio Ki [10]
CC1(C)C(=O)N(Cc2ccccc2)C(=O)N1CCCCCN1CCN(c2ccccc2F)CC1.Cl	2510	76	71	135						
CCOc1ccccc1N1CCN(CCCN2C(=O)N(C)C(=O)C2(c2ccccc2)c2ccccc2)CC1	4140	5.5	2600	95						
COc1ccccc1N1CCN(CCCCN2C(=O)N(C)C(=O)C2(c2ccccc2)c2ccccc2)CC1	3570	0.8		16						
CC1(C)C(=O)N(Cc2ccccc2)C(=O)N1CCCCCN1CCN(c2ccc(F)cc2F)CC1.Cl	7470	235	71.5	172						
CC1(C)C(=O)N(Cc2ccccc2)C(=O)N1CCCCCN1CCN(c2ccccc2)CC1.Cl	4370	79	68	70	14.3					
CC1(C)C(=O)N(Cc2ccccc2)C(=O)N1CCCCCN1CCN(c2ccc(F)cc2)CC1.Cl	1940	201	68.4	45						
COc1ccccc1N1CCN(CC(O)CN2C(=O)NC(C)(c3ccc(F)cc3)C2=O)CC1.Cl (stereo not given)	10800		181.1		16.6					
COc1ccccc1N1CCN(CCCCCN2C(=O)N(C)C(=O)C2(C)c2ccccc2)CC1.Cl (stereo not given)	14600	23.3	42.3	34	19.8					
COc1ccccc1N1CCN(CCCCCN2C(=O)N(Cc3ccccc3)C(=O)C2(C)C)CC1.Cl	8610	26	42.6	72						
CN1C(=O)N(CCCCCN2CCN(c3ccccc3)CC2)C(C)(c2ccccc2)C1=O.Cl (stereo not given)	9600	135	7.3			7.31	38.6	48.8		
CC1(C)C(=O)N(Cc2ccc(Cl)cc2Cl)C(=O)N1CCCCCN1CCN(c2cccc(Cl)c2Cl)CC1.Cl	395	88	968.8	31	13.8				31	3
CC1(C)C(=O)N(Cc2ccc(Cl)cc2Cl)C(=O)N1CCCCCN1CCN(c2ccc(Cl)cc2)CC1.Cl	2880	2180	758.5	456						
COc1cccc(N2CCN(CCCCCN3C(=O)N(Cc4ccccc4)C(=O)C3(C)C)CC2)c1.Cl	2930	45	97.2	122						
CC1(C)C(=O)N(Cc2ccc(F)cc2)C(=O)N1CCCCCN1CCN(c2ccc(F)cc2)CC1.Cl	1760	305	36.8	46	17.2					
CN1C(=O)N(CCCCCN2CCN(c3ccccc3)CC2)C(c2ccccc2)(c2ccccc2)C1=O.Cl	3070	13.2	6.7	77	36.9					
CC1(C)C(=O)N(Cc2ccc(F)cc2)C(=O)N1CCCCCN1CCN(c2ccc(F)cc2F)CC1.Cl	8100	299	38.8	123						
CN1C(=O)N(CCCCCN2CCN(c3ccccc3F)CC2)C(C)(c2ccccc2)C1=O.Cl (stereo not given)	25500	124	11.3	157		3.01	48.3	7.21		
COc1ccccc1N1CCN(CCCN2C(=O)N(C)C(=O)C2(c2ccccc2)c2ccccc2)CC1	29100	6.5		210						
CC1(C)C(=O)N(Cc2ccc(Cl)cc2Cl)C(=O)N1CCCCCN1CCN(c2ccc(Cl)c(Cl)c2)CC1.Cl	314	301	673	78					9	4
CN1C(=O)N(CC(O)CN2CCN(c3ccccc3)CC2)C(c2ccccc2)(c2ccccc2)C1=O (stereo not given)	20400	324		353						
